Experimental data reported in patent publication US9695155B2, “Herbicidal substituted pyrimidinyloxy benzene compounds” (E. I. DU PONT DE NEMOURS AND COMPANY, priority 2013, dated 2017).

Experiments:
large (Lg) crabgrass [1] = assay: Test C postemergence; type: in vivo, Digitaria sanguinalis; conditions: Digitaria sanguinalis, post-emergence
Method in brief: (§1)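 Rated visually on 0–100 (100 = complete control) after 13–15 days under glass. Treatments went onto freshly seeded loam/sand soil or onto emerged plants at the 1- to 4-leaf stage, using a surfactant-containing solvent formulation.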

wheat, winter = assay: Test C postemergence; type: in vivo, Triticum aestivum
Method in brief: as §1

giant foxtail = assay: Test A preemergence; type: in vivo, Setaria faberii; conditions: Setaria faberi, pre-emergence, 240 h, 0 to 100 scale where 0 is no effect and 100 is complete control
Method in brief: (§2)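 Injury scores run from 0, no effect, to 100, complete control, judged by eye against untreated plants roughly 10 days after treatment. Chemicals carried a surfactant in a non-phytotoxic solvent and went onto loam–sand soil preemergence or onto one- to two-leaf seedlings postemergence.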

corn = assay: Test C postemergence; type: in vivo, Zea mays; conditions: Zea mays, post-emergence
Method in brief: as §1

large (Lg) crabgrass [2] = assay: Test A preemergence; type: in vivo, Digitaria sanguinalis; conditions: Digitaria sanguinalis, pre-emergence, 240 h, 0 to 100 scale where 0 is no effect and 100 is complete control
Method in brief: as §2

Heteranthera limosa = assay: Test B flooded paddy test; type: in vivo; conditions: Heteranthera limosa, Flood, 250 g ai/ha; 0 to 100 scale where 0 is no effect and 100 is complete control; read-out: Plant response rating, Ducksalad
Method in brief: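 Post-emergence paddy-water application at the 2-leaf stage, with 3 cm flood kept for the whole test. Response was judged visually relative to controls after 13 to 15 greenhouse days, 0 indicating no effect and 100 complete control.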

pigweed = assay: Test A postemergence; type: in vivo, Amaranthus retroflexus; conditions: Amaranthus retroflexus, post-emergence, 0 to 100 scale where 0 is no effect and 100 is complete control
Method in brief: as §2

velvetleaf = assay: Test A preemergence; type: in vivo, Abutilon theophrasti
Method in brief: as §2

chickweed = assay: Test C postemergence; type: in vivo, Stellaria media; conditions: Stellaria media, post-emergence
Method in brief: as §1

Fc1cccc(Oc2ncc(Cl)cn2)c1-n1cc(Br)cn1 [Compound 178, 2-[2-(4-bromo-1H-pyrazol-1-yl)-3-fluorophenoxy]-5-chloropyrimidine]
pest or weed control at 16 g/ha (large (Lg) crabgrass [1]; 16 g ai/ha, postemergence, 0 is no effect, 100 is complete control, read-out: Plant response rating (0 to 100), Crabgrass, Large): 5% | pest or weed control at 31 g/ha (large (Lg) crabgrass [1]; 31 g ai/ha, postemergence, visual rating, scale 0 to 100 (0 no effect, 100 complete control), 13 to 15 days, read-out: Crabgrass, Large plant response rating): 10% | pest or weed control at 125 g/ha (large (Lg) crabgrass [1]; 125 g ai/ha, postemergence, visual rating, scale 0 to 100 (0 no effect, 100 complete control), read-out: Plant response rating, Crabgrass, Large): 10% | pest or weed control at 62 g/ha (large (Lg) crabgrass [1]; Postemergence, 62 g ai/ha, scale 0 to 100 (0 no effect, 100 complete control), read-out: Plant response rating, Crabgrass, Large): 5% | Wheat plant response rating (wheat, winter; 31 g ai/ha, postemergence, visual rating, scale 0 to 100 (0 no effect, 100 complete control), 13 to 15 days): 0 | plant injury at 16 g/ha (wheat, winter; Triticum aestivum, post-emergence, 16 g ai/ha, postemergence, 0 is no effect, 100 is complete control, read-out: Plant response rating (0 to 100), Wheat): 0% | plant injury at 125 g/ha (wheat, winter; Triticum aestivum, post-emergence, 125 g ai/ha, postemergence, visual rating, scale 0 to 100 (0 no effect, 100 complete control), read-out: Plant response rating, Wheat): 0% | plant injury at 62 g/ha (wheat, winter; Triticum aestivum, post-emergence, Postemergence, 62 g ai/ha, scale 0 to 100 (0 no effect, 100 complete control), read-out: Plant response rating, Wheat): 0% | pest or weed control at 125 g/ha (giant foxtail; 125 g ai/ha, read-out: Plant response rating, Foxtail, Giant): 100% | pest or weed control at 500 g/ha (giant foxtail; 500 g ai/ha, read-out: Foxtail, Giant plant response rating): 100% | plant injury at 16 g/ha (corn; 16 g ai/ha, postemergence, 0 is no effect, 100 is complete control, read-out: Plant response rating (0 to 100), Corn): 5% | plant injury at 31 g/ha (corn; 31 g ai/ha, postemergence, visual rating, scale 0 to 100 (0 no effect, 100 complete control), 13 to 15 days, read-out: Corn plant response rating): 10% | Corn plant response rating (crop injury, 0 = no effect, 100 = complete kill) at 125 g/ha (corn; 125 g ai/ha, postemergence, visual rating, scale 0 to 100 (0 no effect, 100 complete control)): 10% | Corn plant response rating (crop injury, 0 = no effect, 100 = complete kill) at 62 g/ha (corn; Postemergence, 62 g ai/ha, scale 0 to 100 (0 no effect, 100 complete control)): 10% | pest or weed control at 125 g/ha (large (Lg) crabgrass [2]; 125 g ai/ha, read-out: Plant response rating, Crabgrass, Large): 100% | pest or weed control at 500 g/ha (large (Lg) crabgrass [2]; 500 g ai/ha, read-out: Crabgrass, Large plant response rating): 100% | pest or weed control at 250 g/ha (Heteranthera limosa): 0% | pest or weed control at 500 g/ha (pigweed; 500 g ai/ha, read-out: Plant response rating, Pigweed): 100% | pest or weed control at 125 g/ha (pigweed; 240 h, 125 g ai/ha, read-out: Pigweed plant response rating): 100% | Velvetleaf plant response rating (0 to 100 scale) (velvetleaf; 125 g ai/ha): 80 | pest or weed control at 500 g/ha (velvetleaf; Abutilon theophrasti, pre-emergence, 240 h, 500 g ai/ha, 0 to 100 scale where 0 is no effect and 100 is complete control, read-out: Velvetleaf plant response rating): 100% | pest or weed control at 16 g/ha (chickweed; 16 g ai/ha, postemergence, 0 is no effect, 100 is complete control, read-out: Plant response rating (0 to 100), Chickweed): 40% | pest or weed control at 31 g/ha (chickweed; 31 g ai/ha, postemergence, visual rating, scale 0 to 100 (0 no effect, 100 complete control), 13 to 15 days, read-out: Chickweed plant response rating): 50% | pest or weed control at 125 g/ha (chickweed; 125 g ai/ha, postemergence, visual rating, scale 0 to 100 (0 no effect, 100 complete control), read-out: Plant response rating, Chickweed): 80% | pest or weed control at 62 g/ha (chickweed; Postemergence, 62 g ai/ha, scale 0 to 100 (0 no effect, 100 complete control), read-out: Plant response rating, Chickweed): 65%
